Measured values published in PubChem BioAssay (NCI).
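In this assay, cells in 96-well plates receive the compound at five concentrations for 48 hours. Endpoints are linearly interpolated between the surrounding concentrations. The concentration for 50% growth inhibition is given as GI50. The concentration for full growth arrest is given as TGI.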

Tests used:
Test in all cases: DTP human tumour cell line panel, 48 h
RPMI-8226 leukemia = system: RPMI-8226 leukemia
MCF7 breast = system: MCF7 breast
OVCAR-4 ovarian = system: OVCAR-4 ovarian
U251 CNS = system: U251 CNS
CCRF-CEM leukemia = system: CCRF-CEM leukemia
M14 melanoma = system: M14 melanoma
OVCAR-3 ovarian = system: OVCAR-3 ovarian
A549 NSCLC = system: A549 NSCLC
SK-MEL-2 melanoma = system: SK-MEL-2 melanoma
T-47D breast = system: T-47D breast
SK-OV-3 ovarian = system: SK-OV-3 ovarian
UACC-62 melanoma = system: UACC-62 melanoma
SF-268 CNS = system: SF-268 CNS
NCI-H522 lung = system: NCI-H522 lung
PC-3 prostate = system: PC-3 prostate
HOP-62 NSCLC = system: HOP-62 NSCLC
786-0 renal = system: 786-0 renal
LOX IMVI melanoma = system: LOX IMVI melanoma
IGROV1 ovarian = system: IGROV1 ovarian
HOP-92 NSCLC = system: HOP-92 NSCLC
HT29 colon = system: HT29 colon
OVCAR-5 ovarian = system: OVCAR-5 ovarian
MOLT-4 leukemia = system: MOLT-4 leukemia
MDA-MB-435 = system: MDA-MB-435
SNB-19 CNS = system: SNB-19 CNS
EKVX NSCLC = system: EKVX NSCLC
SF-539 CNS = system: SF-539 CNS
SF-295 CNS = system: SF-295 CNS
OVCAR-8 ovarian = system: OVCAR-8 ovarian
HCT-15 colon = system: HCT-15 colon
NCI/ADR-RES ovarian = system: NCI/ADR-RES ovarian
ACHN renal = system: ACHN renal
UO-31 renal = system: UO-31 renal
SW-620 colon = system: SW-620 colon
HS 578T breast = system: HS 578T breast
CAKI-1 renal = system: CAKI-1 renal
COLO 205 colon = system: COLO 205 colon
HCT-116 colon = system: HCT-116 colon
MDA-MB-231 breast = system: MDA-MB-231 breast
DU-145 prostate = system: DU-145 prostate
HL-60(TB) leukemia = system: HL-60(TB) leukemia
UACC-257 melanoma = system: UACC-257 melanoma
BT-549 breast = system: BT-549 breast
SK-MEL-28 melanoma = system: SK-MEL-28 melanoma
SN12C renal = system: SN12C renal
MALME-3M melanoma = system: MALME-3M melanoma
NCI-H226 lung = system: NCI-H226 lung
NCI-H23 lung = system: NCI-H23 lung
NCI-H460 lung = system: NCI-H460 lung
KM12 colon = system: KM12 colon
A498 renal = system: A498 renal
RXF 393 renal = system: RXF 393 renal
TK-10 renal = system: TK-10 renal

With Cc1ccc(-c2cc(/C=N/O)on2)cc1 as the molecule, how does the GI50 (RPMI-8226 leukemia) read?
Its GI50 is 36.9 µM.

What about the TGI (RPMI-8226 leukemia) of the same molecule?
Its TGI is over 100 µM.

And the GI50 (MCF7 breast)?
The GI50 was 55.1 µM.

What about the TGI (MCF7 breast) of the same molecule?
The TGI was over 100 µM.

What about the GI50 (OVCAR-4 ovarian) of the same molecule?
Its GI50 is over 100 µM.

What about the TGI (OVCAR-4 ovarian) of the same molecule?
Its TGI is over 100 µM.

What about the GI50 (U251 CNS) of the same molecule?
The GI50 was 54.3 µM.

And the TGI (U251 CNS)?
The TGI was over 100 µM.

What about the GI50 (CCRF-CEM leukemia) of the same molecule?
Its GI50 is 46.9 µM.

And the TGI (CCRF-CEM leukemia)?
Its TGI is over 100 µM.

What about the GI50 (M14 melanoma) of the same molecule?
The GI50 was 65.4 µM.

And the TGI (M14 melanoma)?
Its TGI is over 100 µM.

What about the GI50 (OVCAR-3 ovarian) of the same molecule?
Its GI50 is 58.2 µM.

And the TGI (OVCAR-3 ovarian)?
Its TGI is over 100 µM.

What about the GI50 (A549 NSCLC) of the same molecule?
Its GI50 is 51 µM.

And the TGI (A549 NSCLC)?
The TGI was over 100 µM.

And the GI50 (SK-MEL-2 melanoma)?
Its GI50 is 97.3 µM.

What about the TGI (SK-MEL-2 melanoma) of the same molecule?
The TGI was over 100 µM.

And the GI50 (T-47D breast)?
Its GI50 is 29.5 µM.

And the TGI (T-47D breast)?
Its TGI is over 100 µM.

What about the GI50 (SK-OV-3 ovarian) of the same molecule?
Its GI50 is over 100 µM.

And the TGI (SK-OV-3 ovarian)?
Its TGI is over 100 µM.

What about the GI50 (UACC-62 melanoma) of the same molecule?
The GI50 was 38.9 µM.

And the TGI (UACC-62 melanoma)?
The TGI was over 100 µM.

What about the GI50 (SF-268 CNS) of the same molecule?
The GI50 was over 100 µM.

What about the TGI (SF-268 CNS) of the same molecule?
The TGI was over 100 µM.

And the GI50 (NCI-H522 lung)?
Its GI50 is 62.4 µM.

What about the TGI (NCI-H522 lung) of the same molecule?
Its TGI is over 100 µM.

What about the GI50 (PC-3 prostate) of the same molecule?
Its GI50 is 63 µM.

And the TGI (PC-3 prostate)?
The TGI was over 100 µM.

What about the GI50 (HOP-62 NSCLC) of the same molecule?
The GI50 was over 100 µM.

And the TGI (HOP-62 NSCLC)?
Its TGI is over 100 µM.

And the GI50 (786-0 renal)?
Its GI50 is 50.4 µM.

What about the TGI (786-0 renal) of the same molecule?
Its TGI is over 100 µM.

What about the GI50 (LOX IMVI melanoma) of the same molecule?
The GI50 was 53.3 µM.

What about the TGI (LOX IMVI melanoma) of the same molecule?
The TGI was over 100 µM.

And the GI50 (IGROV1 ovarian)?
Its GI50 is 63.8 µM.

What about the TGI (IGROV1 ovarian) of the same molecule?
The TGI was over 100 µM.

What about the GI50 (HOP-92 NSCLC) of the same molecule?
The GI50 was 47.6 µM.

What about the TGI (HOP-92 NSCLC) of the same molecule?
The TGI was over 100 µM.

And the GI50 (HT29 colon)?
The GI50 was 48.4 µM.

What about the TGI (HT29 colon) of the same molecule?
The TGI was over 100 µM.

What about the GI50 (OVCAR-5 ovarian) of the same molecule?
Its GI50 is over 100 µM.

What about the TGI (OVCAR-5 ovarian) of the same molecule?
The TGI was over 100 µM.

And the GI50 (MOLT-4 leukemia)?
The GI50 was 21.9 µM.

And the TGI (MOLT-4 leukemia)?
Its TGI is over 100 µM.

And the GI50 (MDA-MB-435)?
The GI50 was 52.1 µM.

What about the TGI (MDA-MB-435) of the same molecule?
Its TGI is over 100 µM.

And the GI50 (SNB-19 CNS)?
The GI50 was over 100 µM.

And the TGI (SNB-19 CNS)?
The TGI was over 100 µM.

What about the GI50 (EKVX NSCLC) of the same molecule?
Its GI50 is 43.3 µM.

What about the TGI (EKVX NSCLC) of the same molecule?
Its TGI is over 100 µM.

What about the GI50 (SF-539 CNS) of the same molecule?
Its GI50 is over 100 µM.

And the TGI (SF-539 CNS)?
Its TGI is over 100 µM.

And the GI50 (SF-295 CNS)?
The GI50 was 33.9 µM.

What about the TGI (SF-295 CNS) of the same molecule?
The TGI was over 100 µM.

What about the GI50 (OVCAR-8 ovarian) of the same molecule?
Its GI50 is over 100 µM.

And the TGI (OVCAR-8 ovarian)?
Its TGI is over 100 µM.

What about the GI50 (HCT-15 colon) of the same molecule?
The GI50 was 64.6 µM.

And the TGI (HCT-15 colon)?
The TGI was over 100 µM.

And the GI50 (NCI/ADR-RES ovarian)?
The GI50 was 45.4 µM.

And the TGI (NCI/ADR-RES ovarian)?
Its TGI is over 100 µM.

What about the GI50 (ACHN renal) of the same molecule?
The GI50 was 54.8 µM.

What about the TGI (ACHN renal) of the same molecule?
Its TGI is over 100 µM.

And the GI50 (UO-31 renal)?
Its GI50 is 36.4 µM.

What about the TGI (UO-31 renal) of the same molecule?
The TGI was over 100 µM.

And the GI50 (SW-620 colon)?
Its GI50 is 65.7 µM.

And the TGI (SW-620 colon)?
The TGI was over 100 µM.

What about the GI50 (HS 578T breast) of the same molecule?
Its GI50 is over 100 µM.

What about the TGI (HS 578T breast) of the same molecule?
The TGI was over 100 µM.

And the GI50 (CAKI-1 renal)?
Its GI50 is 43.9 µM.

And the TGI (CAKI-1 renal)?
Its TGI is over 100 µM.

What about the GI50 (COLO 205 colon) of the same molecule?
The GI50 was 49.9 µM.

What about the TGI (COLO 205 colon) of the same molecule?
The TGI was over 100 µM.

What about the GI50 (HCT-116 colon) of the same molecule?
The GI50 was 71.4 µM.

And the TGI (HCT-116 colon)?
Its TGI is over 100 µM.

And the GI50 (MDA-MB-231 breast)?
The GI50 was over 100 µM.

What about the TGI (MDA-MB-231 breast) of the same molecule?
The TGI was over 100 µM.

And the GI50 (DU-145 prostate)?
The GI50 was 68.7 µM.

What about the TGI (DU-145 prostate) of the same molecule?
The TGI was over 100 µM.

What about the GI50 (HL-60(TB) leukemia) of the same molecule?
The GI50 was 26.5 µM.

And the TGI (HL-60(TB) leukemia)?
The TGI was over 100 µM.

What about the GI50 (UACC-257 melanoma) of the same molecule?
The GI50 was 67.5 µM.

What about the TGI (UACC-257 melanoma) of the same molecule?
The TGI was over 100 µM.

What about the GI50 (BT-549 breast) of the same molecule?
The GI50 was 49.5 µM.

What about the TGI (BT-549 breast) of the same molecule?
The TGI was over 100 µM.

What about the GI50 (SK-MEL-28 melanoma) of the same molecule?
The GI50 was over 100 µM.

And the TGI (SK-MEL-28 melanoma)?
The TGI was over 100 µM.

And the GI50 (SN12C renal)?
The GI50 was over 100 µM.

What about the TGI (SN12C renal) of the same molecule?
The TGI was over 100 µM.

What about the GI50 (MALME-3M melanoma) of the same molecule?
The GI50 was over 100 µM.

And the TGI (MALME-3M melanoma)?
Its TGI is over 100 µM.

And the GI50 (NCI-H226 lung)?
Its GI50 is 36.2 µM.

What about the TGI (NCI-H226 lung) of the same molecule?
The TGI was over 100 µM.

What about the GI50 (NCI-H23 lung) of the same molecule?
The GI50 was 73.1 µM.

And the TGI (NCI-H23 lung)?
The TGI was over 100 µM.

What about the GI50 (NCI-H460 lung) of the same molecule?
Its GI50 is 63.6 µM.

What about the TGI (NCI-H460 lung) of the same molecule?
Its TGI is over 100 µM.

And the GI50 (KM12 colon)?
Its GI50 is 35.6 µM.

What about the TGI (KM12 colon) of the same molecule?
Its TGI is over 100 µM.

What about the GI50 (A498 renal) of the same molecule?
The GI50 was 41.3 µM.

What about the TGI (A498 renal) of the same molecule?
The TGI was over 100 µM.

And the GI50 (RXF 393 renal)?
The GI50 was over 100 µM.

What about the TGI (RXF 393 renal) of the same molecule?
Its TGI is over 100 µM.

What about the GI50 (TK-10 renal) of the same molecule?
The GI50 was 63.8 µM.

And the TGI (TK-10 renal)?
The TGI was over 100 µM.
